# In patent publication US10770169B2, “Method of providing a treatment to a subject based on a dynamic pathway map” (THE REGENTS OF THE UNIVERSITY OF CALIFORNIA, priority 2010, dated 2020):
# Columns and labels:
# [1] = system: luminal, basal, claudin-low and ERBB2AMP breast cancer cell lines; experiment: Associations of clinically relevant subtypes and response (non-parametric ANOVA or t-test on GI50 ranks); type: cell-based, human; conditions: Table 6; most sensitive subtype, FDR p<0.20
# Method in brief: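 GI50 values were compared between cell-line subtype groups by non-parametric ANOVA or t-test on ranks. P-values from three test sets were combined and FDR-corrected. Significant three-group effects were followed by post-hoc comparison of each group against all others, and FDR p<0.20 counted as significant.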
# [2] = system: panel of 55 breast cancer cell lines; experiment: Cell growth inhibition assay (Cell Titer Glo, 72 h, 9 doses; GI50, TGI, LC50); type: cell-based, human; conditions: value is the negative log10 of mol/L
compound,measurement,setting,value
CC(/C=C/C(=O)NO)=C\[C@@H](C)C(=O)c1ccc(N(C)C)cc1 [Trichostatin A],Subtype specificity,[1],Luminal
same,GI50,"[2]; 600MPE cell line, censored GI50 values",5.18
same,GI50,"[2]; AU565 cell line, censored GI50 values",5.43
same,GI50,"[2]; BT20 cell line, censored GI50 values",4.81
same,GI50,"[2]; BT474 cell line, censored GI50 values",5.00
same,GI50,"[2]; BT483 cell line, censored GI50 values",5.00
same,GI50,"[2]; BT549 cell line, censored GI50 values",5.13
same,GI50,"[2]; CAMA1 cell line, censored GI50 values",5.57
same,GI50,"[2]; HCC38 cell line, censored GI50 values",5.22
same,GI50,"[2]; HCC70 cell line, censored GI50 values",4.84
same,GI50,"[2]; HCC202 cell line, censored GI50 values",6.04
same,GI50,"[2]; HCC1143 cell line, censored GI50 values",4.77
same,GI50,"[2]; HCC1187 cell line, censored GI50 values",5.32
same,GI50,"[2]; HCC1395 cell line, censored GI50 values",4.50
same,GI50,"[2]; HCC1419 cell line, censored GI50 values",4.85
same,GI50,"[2]; HCC1428 cell line, censored GI50 values",5.73
same,GI50,"[2]; HCC1500 cell line, censored GI50 values",4.82
same,GI50,"[2]; HCC1806 cell line, censored GI50 values",4.97
same,GI50,"[2]; HCC1937 cell line, censored GI50 values",4.82
same,GI50,"[2]; HCC1954 cell line, censored GI50 values",4.95
same,GI50,"[2]; HCC2185 cell line, censored GI50 values",4.79
same,GI50,"[2]; HCC3153 cell line, censored GI50 values",4.62
same,GI50,"[2]; LY2 cell line, censored GI50 values",4.86
same,GI50,"[2]; MCF7 cell line, censored GI50 values",5.16
same,GI50,"[2]; MDAMB134VI cell line, censored GI50 values",5.17
same,GI50,"[2]; MDAMB157 cell line, censored GI50 values",4.68
same,GI50,"[2]; MDAMB175VII cell line, censored GI50 values",5.23
same,GI50,"[2]; MDAMB231 cell line, censored GI50 values",5.26
same,GI50,"[2]; MDAMB361 cell line, censored GI50 values",5.09
same,GI50,"[2]; MDAMB415 cell line, censored GI50 values",4.90
same,GI50,"[2]; MDAMB436 cell line, censored GI50 values",4.67
same,GI50,"[2]; MDAMB453 cell line, censored GI50 values",5.23
same,GI50,"[2]; MDAMB468 cell line, censored GI50 values",4.85
same,GI50,"[2]; SKBR3 cell line, censored GI50 values",5.21
same,GI50,"[2]; SUM52PE cell line, censored GI50 values",5.57
same,GI50,"[2]; SUM149PT cell line, censored GI50 values",5.14
same,GI50,"[2]; SUM159PT cell line, censored GI50 values",5.23
same,GI50,"[2]; SUM185PE cell line, censored GI50 values",4.76
same,GI50,"[2]; SUM225CWN cell line, censored GI50 values",4.85
same,GI50,"[2]; SUM1315MO2 cell line, censored GI50 values",4.31
same,GI50,"[2]; T47D cell line, censored GI50 values",5.44
same,GI50,"[2]; UACC812 cell line, censored GI50 values",5.04
same,GI50,"[2]; UACC893 cell line, censored GI50 values",5.54
same,GI50,"[2]; ZR75B cell line, censored GI50 values",5.30
same,GI50,"[2]; ZR751 cell line, censored GI50 values",4.74
same,GI50,[2]; cell line 600MPE,5.18
same,GI50,[2]; cell line AU565,5.43
same,GI50,[2]; cell line BT20,4.81
same,GI50,[2]; cell line BT474,5.00
same,GI50,[2]; cell line BT483,5.00
same,GI50,[2]; cell line BT549,5.13
same,GI50,[2]; cell line CAMA1,5.57
same,GI50,[2]; cell line HCC38,5.22
same,GI50,[2]; cell line HCC70,4.84
same,GI50,[2]; cell line HCC202,6.04
same,GI50,[2]; cell line HCC1143,4.77
same,GI50,[2]; cell line HCC1187,5.32
same,GI50,[2]; cell line HCC1395,4.50
same,GI50,[2]; cell line HCC1419,4.85
same,GI50,[2]; cell line HCC1428,5.73
same,GI50,[2]; cell line HCC1500,4.82
same,GI50,[2]; cell line HCC1806,4.97
same,GI50,[2]; cell line HCC1937,4.82
same,GI50,[2]; cell line HCC1954,4.95
same,GI50,[2]; cell line HCC2185,4.79
same,GI50,[2]; cell line HCC3153,4.62
same,GI50,[2]; cell line LY2,4.86
same,GI50,[2]; cell line MCF7,5.16
same,GI50,[2]; cell line MDAMB134V,5.17
same,GI50,[2]; cell line MDAMB157,4.68
same,GI50,[2]; cell line MDAMB175V,5.23
same,GI50,[2]; cell line MDAMB231,5.26
same,GI50,[2]; cell line MDAMB361,5.09
same,GI50,[2]; cell line MDAMB415,4.90
same,GI50,[2]; cell line MDAMB436,4.67
same,GI50,[2]; cell line MDAMB453,5.23
same,GI50,[2]; cell line MDAMB468,4.85
same,GI50,[2]; cell line SKBR3,5.21
same,GI50,[2]; cell line SUM52PE,5.57
same,GI50,[2]; cell line SUM149PT,5.14
same,GI50,[2]; cell line SUM159PT,5.23
same,GI50,[2]; cell line SUM185PE,4.76
same,GI50,[2]; cell line SUM225CWN,4.85
same,GI50,[2]; cell line SUM1315MO,4.31
same,GI50,[2]; cell line T47D,5.44
same,GI50,[2]; cell line UACC812,5.04
same,GI50,[2]; cell line UACC893,5.54
same,GI50,[2]; cell line ZR75B,5.30
same,GI50,[2]; cell line ZR751,4.74
